The experiment deals with T1, renin (Homo sapiens, UniProt P00797).
T1 construct: made in house; host or cells: Chinese Hamster Ovary cells
T1 sequence (P00797 67-406): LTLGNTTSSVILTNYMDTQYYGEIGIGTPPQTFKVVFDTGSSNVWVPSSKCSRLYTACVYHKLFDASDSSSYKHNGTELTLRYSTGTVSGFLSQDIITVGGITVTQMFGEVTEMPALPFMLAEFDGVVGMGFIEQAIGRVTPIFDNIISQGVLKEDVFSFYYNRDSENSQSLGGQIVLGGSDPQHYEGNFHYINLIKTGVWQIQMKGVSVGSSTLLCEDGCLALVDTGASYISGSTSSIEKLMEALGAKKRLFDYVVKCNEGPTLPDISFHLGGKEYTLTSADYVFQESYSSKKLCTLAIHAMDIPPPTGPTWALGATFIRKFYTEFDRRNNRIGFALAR
In words: renin enzyme assay (which of the described assay systems is not specified). The experiment is classed as biochemical. To be noted: in the several assay system as described above. As to the method:
Recombinant human renin (expressed in Chinese Hamster Ovary cells and purified using standard methods) at 7.5 nM concentration is incubated with test compound at various concentrations for 1 h at RT in 0.1 M Tris-HCl buffer, pH 7.4, containing 0.05 M NaCl, 0.5 mM EDTA and 0.05% CHAPS. Synthetic peptide substrate Arg-Glu(EDANS)-Ile-His-Pro-Phe-His-Leu-Val-Ile_His_Thr-Lys(DABCYL)-Arg9 is added to a final concentration of 2 μM and increase in fluorescence is recorded at an excitation wave-length of 350 nm and at an emission wave-length of 500 nm in a microplate spectro-fluorimeter. IC50 values are calculated from percentage of inhibition of renin activity as a function of test compound concentration (Fluorescence Resonance Energy Transfer, FRET, assay).
Alternatively, recombinant human renin (expressed in Chinese Hamster Ovary cells and purified using standard methods) at 0.5 nM concentration is incubated with test compound at various concentrations for 2 h at 37° C. in 0.1 M Tris-HCl buffer, pH 7.4, containing 0.05 M NaCl, 0.5 mM EDTA and 0.05% CHAPS. Synthetic peptide substrate Arg-Glu(EDANS)-Ile-His-Pro-Phe-His-Leu-Val-Ile_His_Thr-Lys(DABCYL)-Arg9 is added to a final concentration of 4 μM and increase in fluorescence is recorded at an excitation wave-length of 340 nm and at an emission wave-length of 485 nm in a microplate spectro-fluorimeter. […]

Regarding `Cc1cccc(CN(C(=O)[C@H]2CNCC[C@@H]2c2cccc(-c3ccccc3)c2)C2CC2)c1C` [Example 75], the “inhibitory activity compared with the active enantiomer of Example 8” value was “same inhibitory activity to an active enantiomer of Example 8”.

These data come from patent US8178559B2, “Organic compounds” (Novartis AG, priority 2004, dated 2012).
